Measurements taken from patent publication US12680081B2, “Human induced pluripotent stem cell line transformed with fluorescent protein-labeled cytochrome P450 and AHR modulator screening method using same” (priority 2020, dated 2026).
Counter-ions that a name gives are not always drawn.

Tests used:
[1] = tested on: CYP1A1-mCherry HLC; assay: Cell viability analysis (cell counting Kit-8); assay type: cell-based; conditions: working concentration 10 μM, 24 hours, FIG. 10b
Description: 11. Cell Viability Analysis
To analyze cell viability, target chemicals (10 μM) were treated for 24 hours prior to performing cell viability analysis. Then, 10 μl of cell counting Kit-8 was added to 100 μl of the medium, followed by incubation for 2 hours. Absorbance was measured at 450 nm using an iMark™ microplate absorbance reader (Bio-Rad). Cell viability was calculated using the following formula: Cell viability (%)=(Asample−Ablank)/(Acontrol−Ablank)×100

[2] = tested on: AHR-CYP1A1 axis; assay: High-content screening (HCS) of mCherry intensity in live CYP1A1-mCherry HLCs; conditions: for inhibition of the effect of TCDD on mCherry expression: human
Description: 9. Chemical Treatment and High-Content Screening (HCS)
To perform HCS, the cells differentiated for 10 days were dissociated, plated in a Matrigel®-coated 96-well plate, and cultured for maturation. […] DMSO was used as a vehicle control. For staining the live cell nucleus, cells were cultured with 2 μg/ml of Hoechst 33342 (Life Technologies) for 10 minutes. Stained cells were imaged using ImageXpress Micro XLS Widefield High-Content Analysis System (Molecular Devices, San Jose, Calif., USA). The acquired images were analyzed using MetaXpress High-Content Image Acquisition and Analysis Software (Molecular Devices) according to disclosed methods. For analysis, cells were first identified using Hoechst staining and mCherry intensity was detected to measure CYP1A1 expression.

[3] = tested on: CYP1A1; assay: Ethoxyresorufin-O-deethylase (EROD) analysis of CYP1A1 activity in CYP1A1-mCherry HLCs; conditions: for inhibition of the effect of TCDD on CYP1A1 activity: FIG. 10d
Description: Ethoxyresorufin-O-Deetylase (EROD) Analysis
To measure the CYP1A1 activity, cells were cultured in a serum-free medium for 24 hours before treatment. The cells were treated with 7.5 μM ethoxyresorufin in the presence or absence of 10 μM dicumarol (inhibitor) in HBSS for 7.5, 15, 30 and 60 minutes, and 100 μl of the medium was removed into a new microcentrifuge tube. The same amount (100 μl) of ice-cold acetonitrile-methanol was added to the removed medium, followed by brief vortexing and centrifugation at 16,000×g for 5 minutes at 4° C. The supernatant was used for the following analysis. The level of the metabolite resorufin was measured by high-performance liquid chromatography (HPLC) with a Luna C18 column (4.6×150 mm, 5 μm; Phenomenex, Seoul, Korea). The moving phase was composed of 20 mM phosphate buffer-methanol-acetonitrile (52:45:3, v/v/v), and the flow rate was 0.8 ml/minute. Fluorescence was measured at an excitation wavelength of 560 nm and an emission wavelength of 585 nm. Concentrations were calculated using a standard curve for resorufin normalized by the total cellular protein content measured using a BCA protein analysis kit (Thermo Fisher Scientific).

[4] = tested on: CYP1A1 mRNA
Description: 8. Quantitative Reverse Transcription PCR (RT-qPCR)
Total RNA was extracted from each sample using NucleoZOL reagent (Macherey-Nagel, Duren, Germany) and reverse transcription was performed using GoScript™ reverse transcription mix (Promega) according to the manufacturer's protocol. RT-qPCR was performed with SYBR Green Realtime PCR Master Mix (TOYOBO, Osaka, Japan) in StepOnePlus Real-Time PCR system (Applied Biosystems, Foster City, Calif., USA). PCR amplification was performed in triplicate for each sample. PCR results were expressed as relative fold change compared to the control cells after normalization with glyceraldehyde-3-phosphate dehydrogenase (GAPDH). The ΔCt (SΔCt) value was calculated as the difference between the Ct value obtained for GAPDH and the target gene. The ΔCt value of the control cells was used as the control ΔCt (CΔCt) value. The relative gene expression level was determined using the following formula: 2−(SΔCt−CΔCt).
After preparing cells for RNA extraction, RT-qPCR analysis for the expression of CYP1A1 mRNA was performed according to the above procedure. Dose-response curves were created by the least squares fitting method using GraphPad Prism 5 (GraphPad, San Diego, Calif., USA).

[5] = biological target: T1, mouse AHR (Mus musculus, UniProt P30561); conditions: mouse AHR higher than human AHR; cited from earlier work
T1 sequence (P30561 10-848): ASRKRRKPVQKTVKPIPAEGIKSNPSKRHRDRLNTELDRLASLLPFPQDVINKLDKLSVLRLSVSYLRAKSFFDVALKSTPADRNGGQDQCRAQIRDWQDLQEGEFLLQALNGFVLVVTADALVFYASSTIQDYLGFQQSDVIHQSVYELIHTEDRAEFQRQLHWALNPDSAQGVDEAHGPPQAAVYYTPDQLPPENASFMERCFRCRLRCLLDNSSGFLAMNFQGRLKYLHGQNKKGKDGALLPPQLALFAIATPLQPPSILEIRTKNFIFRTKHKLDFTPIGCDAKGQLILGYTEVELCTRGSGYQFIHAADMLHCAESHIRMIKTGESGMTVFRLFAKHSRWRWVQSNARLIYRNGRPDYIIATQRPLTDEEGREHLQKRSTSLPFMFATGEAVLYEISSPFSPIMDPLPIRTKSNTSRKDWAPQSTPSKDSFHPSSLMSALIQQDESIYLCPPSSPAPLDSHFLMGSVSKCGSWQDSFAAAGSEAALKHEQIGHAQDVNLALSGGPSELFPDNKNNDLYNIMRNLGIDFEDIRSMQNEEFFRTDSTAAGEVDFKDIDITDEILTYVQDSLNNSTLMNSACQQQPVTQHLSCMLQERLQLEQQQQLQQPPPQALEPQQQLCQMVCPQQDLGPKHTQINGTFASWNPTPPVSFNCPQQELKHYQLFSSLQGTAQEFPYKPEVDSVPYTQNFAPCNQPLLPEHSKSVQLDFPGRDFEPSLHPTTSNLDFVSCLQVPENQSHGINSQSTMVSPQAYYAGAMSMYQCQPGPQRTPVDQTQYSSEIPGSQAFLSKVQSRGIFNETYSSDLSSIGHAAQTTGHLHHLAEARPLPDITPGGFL

With `COc1ccc(/C=C/c2cc(OC)cc(=O)o2)cc1` [2-E05, yangonin] as the compound, how does the “cell death (cell viability)” value [1] read?
Its value is “without cell death”.

And the “mCherry intensity compared to CH223191 and TMF” value [2]?
The value was “significant decrease”.

And the “inhibition of the effect of TCDD on mCherry expression” value [2]?
Its value is “at the levels of the non-treated control and CH223191”.

What about the “inhibition of the effect of TCDD on CYP1A1 activity” value [3] of the same compound?
Its value is “at the levels of the non-treated control and CH223191”.

For `COc1cc(/C=C/c2ccccc2)oc(=O)c1` [2-E06, desmethoxyyangonin], which “cell death (cell viability)” value [1] is on record?
The value was “without cell death”.

And the “mCherry intensity compared to CH223191 and TMF” value [2]?
The value was “significant decrease”.

And the “inhibition of the effect of TCDD on mCherry expression” value [2]?
The value was “at the levels of the non-treated control and CH223191”.

And the “inhibition of the effect of TCDD on CYP1A1 activity” value [3]?
The value was “at the levels of the non-treated control and CH223191”.

Which “transcript expression levels of CYP1A1 and mCherry” value ([4]; co-treatment with BaP or TCDD, FIG. 7b) does the source give for `Cc1ccccc1N=Nc1ccc(NC(=O)c2ccnn2C)c(C)c1` [CH223191] here?
The value was “reduced”.

With `Clc1cc2c(cc1Cl)Oc1cc(Cl)c(Cl)cc1O2` [TCDD, 2,3,7,8-tetrachlorodibenzo-p-dioxin] as the compound, how does the “mCherry intensity after treatment” value ([2]; CYP1A1-mCherry HLC, AHR agonist treatment, FIG. 6a) read?
The value was “time-dependent increase”.

What about the “affinity of mouse AHR with TCDD compared to human AHR” value [5] of the same compound?
Its value is 10 fold.

What about the CYP1A1 activity ([3]; 60 minutes, FIG. 6b) of the same compound?
The CYP1A1 activity was “increased”.

Which “concentration of maximal induction” value [4] does the source give for `O=C(OCC(O)CO)c1ccccc1Nc1ccnc2cc(Cl)ccc12` (centres unmarked) [glafenine] here?
Its value is “maximal induction at the concentrations used for screening”.

What about the “increase according to the dose (dose-response, CYP1A1 mRNA)” value ([4]; human) of the same compound?
The value was 6- to 7 fold.

Which “effect according to the dose (dose-response, CYP1A1 mRNA)” value ([4]; human, 24 h) does the source give for `CC(Cc1ccc(O)c(O)c1)C(C)Cc1ccc(O)c(O)c1` (centres unmarked) [nordihydroguaiaretic acid] here?
Its value is ~ 2 times.

With `COc1ccc(Cc2nccc3cc(OC)c(OC)cc23)cc1OC` [papaverine hydrochloride] as the compound, how does the “concentration of maximal induction” value [4] read?
Its value is “maximal induction at the concentrations used for screening”.

And the “increase according to the dose (dose-response, CYP1A1 mRNA)” value ([4]; human)?
The value was 6- to 7 fold.
